Drawing on PubChem BioAssay AID806 (SRMLSC, 2007), this text covers EC50, EC90 and CC50 for 40 molecules.

For this test, the system named is virus-infected cells, CPE inhibition, dose response. In words: PubChem AID 806. To be noted: for EC90: measured here: EC90 CPE inhibition; for CC50: measured here: cytotoxicity, cell viability IC50.

Activity calls are given as the source filed them. No rule for the calls is given here.

In general, EC50 refers to the concentration that produces a half-maximal response. Broadly, the EC90 is the point of the concentration-response curve where the effect stands at 90%. Read a high EC90 as a need for much substance. A word on the CC50: it is the concentration at which the toxic effect on the cells reaches its halfway point. Higher therefore signals better tolerance by the cells. Regarding `Cc1nc2nc(-c3ccc(Cl)cc3)[nH]n2c(=O)c1Cc1ccccc1`, the EC50 is > 60 µM (inactive), the EC90 is over 60 µM and the CC50 is over 60 µM.

`COc1ccccc1NC(=O)c1cc2ccccc2o1`: the EC50 is > 60 µM (inactive), the EC90 was over 60 µM and the cytotoxic concentration (CC50) was over 60 µM.

As for `O=C(c1noc2c1CCc1ccccc1-2)N1CCOCC1`, the EC50 was > 60 µM (inactive), the EC90 was over 60 µM and the CC50 was over 60 µM.

With `CCSc1nnc([C@H](Cc2ccccc2)NC(=O)OC(C)(C)C)o1`, the EC50 was > 60 µM (inactive), the EC90 is over 60 µM and the CC50 is over 60 µM.

For `Cn1nc(C(=O)Nc2c(-c3ccccc3)nc3sccn23)c2ccccc2c1=O`, the EC50 was > 60 µM (inactive), the EC90 was over 60 µM and the CC50 was over 60 µM.

For `CC1CCCN(C(=O)Nc2cccc(NC(=O)N3CCCC(C)C3C)c2)C1C` (configuration not stated), the EC50 is > 60 µM (inactive), the EC90 is over 60 µM and the CC50 is over 60 µM.

As to `Cc1cccc(-n2ncc3c(N4CCc5ccccc54)ncnc32)c1`, the EC50 was > 60 µM (inactive), the concentration for an effect of 90% (EC90) was over 60 µM and the CC50 is over 60 µM.

For the molecule `O=C(CSc1ccc2nnc(-c3ccncc3)n2n1)NCc1ccco1`, the EC50 is > 60 µM (inactive), the EC90 was over 60 µM and the CC50 was over 60 µM.

As for `O=C(NC1CCS(=O)(=O)C1)C1CCCCN1S(=O)(=O)c1ccc(Cl)cc1` (configuration not stated), the EC50 was > 60 µM (inactive), the concentration for an effect of 90% (EC90) was over 60 µM and the CC50 is over 60 µM.

Turning to `CCSc1nnc(-c2ccc(Cl)cc2Cl)o1`, the EC90 was over 60 µM and the CC50 turned out to be 43.7 µM.

As for `N#CCC(=O)N1CCn2c1nc1ccccc12`, the EC50 is > 60 µM (inactive), the EC90 was over 60 µM and the half-maximal cytotoxic concentration (CC50) was over 60 µM.

For `COc1ccc(-n2ncc3c(Nc4cccc(C)c4)ncnc32)cc1`, the EC50 is > 60 µM (inactive), the EC90 is over 60 µM and the CC50 was over 60 µM.

`O=C(CCS(=O)(=O)c1cccc2nsnc12)NC1CCCCC1`: the EC50 is > 60 µM (inactive), the concentration for an effect of 90% (EC90) is over 60 µM and the CC50 is over 60 µM.

In the case of `C=CCSc1nnc(-c2ccc(Cl)cc2Cl)o1`, the EC50 was 59.2 µM (inactive), the concentration for an effect of 90% (EC90) is over 60 µM and the CC50 was over 60 µM.

In the case of `Cc1ccc(OCC(=O)Nc2ccc(-c3nnc(-c4ccco4)o3)cc2)cc1`, the EC50 is > 60 µM (inactive), the 90% effect concentration (EC90) was over 60 µM and the CC50 is over 60 µM.

As to `O=C(Nc1ccncc1)c1cc2ccccc2o1`, the EC50 was > 60 µM (inactive), the 90% effect concentration (EC90) was over 60 µM and the CC50 is over 60 µM.

Take `O=C(Nc1c(-c2ccccc2)nc2sccn12)c1ccccc1`: the EC50 was 0.634 µM, the EC90 is over 60 µM and the CC50 is over 60 µM.

Turning to `Cc1cc(C(=O)NCc2ccccc2)c(=O)[nH]c1C`, the EC50 is > 60 µM (inactive), the EC90 is over 60 µM and the CC50 is over 60 µM.

Regarding `CC(=O)Nc1ccc(Nc2ncnc3c2cnn3-c2cccc(C)c2)cc1`, the EC50 was > 60 µM (inactive), the EC90 was over 60 µM and the CC50 is over 60 µM.

On to `CCCOc1ccc(C(=O)C(CN2CCOCC2)c2ccccc2)cc1` (configuration not stated), for which the EC50 is > 60 µM (inactive), the EC90 was over 60 µM and the CC50 is over 60 µM.

For `Cc1ccc(-n2ncc3c(Nc4cccc(C(=O)O)c4)ncnc32)cc1`, the EC50 is > 60 µM (inactive), the 90% effect concentration (EC90) is over 60 µM and the 50% cytotoxic concentration (CC50) was over 60 µM.

Regarding `Cc1nc2nc(-c3cccnc3)[nH]n2c(=O)c1Cc1ccccc1`, the EC50 is > 60 µM (inactive), the EC90 is over 60 µM and the CC50 was over 60 µM.

As to `CC(C)c1cccc(C(C)C)c1OCCn1ccnc1`, the EC50 is > 60 µM (inactive), the EC90 is over 60 µM and the CC50 is over 60 µM.

Turning to `CCN(CC)C(=O)CN1CCN(c2ncccn2)CC1`, the EC50 is > 60 µM (inactive), the EC90 was over 60 µM and the half-maximal cytotoxic concentration (CC50) is over 60 µM.

Turning to `CC(C)CNC(=O)c1cccc(NC(=O)c2ccc(NC(=O)c3ccco3)cc2)c1`, the EC50 is > 60 µM (inactive), the EC90 was over 60 µM and the CC50 was over 60 µM.

In the case of `CC(=O)Nc1ccc(Nc2ncnc3c2cnn3-c2ccccc2)cc1`, the EC50 was > 60 µM (inactive), the EC90 is over 60 µM and the CC50 is over 60 µM.

Consider `COc1ccccc1Cn1c(=O)[nH]c2cccnc21`, for which the EC50 is > 60 µM (inactive), the EC90 is over 60 µM and the CC50 is over 60 µM.

Consider `CCCCSc1nnc(-c2ccc(C)cc2)o1`, for which the EC50 was > 60 µM (inactive), the EC90 is over 60 µM and the CC50 was over 60 µM.

Molecule `O=C(CSc1nnc2sc3ccccc3n12)N1CCN(c2ccccc2)CC1` registered an EC90 of over 60 µM and a CC50 of over 60 µM.

For `CCCCC(CC)CNC(=O)CCS(=O)(=O)c1cccc2nsnc12` (configuration not stated), the EC50 is > 60 µM (inactive), the EC90 is over 60 µM and the CC50 is over 60 µM.

For `COc1cccc(NC(=O)C2CC(=O)OC23CCOC(C)(C)C3)c1` (configuration not stated), the EC50 was > 60 µM (inactive), the EC90 is over 60 µM and the CC50 was over 60 µM.

Take `CC1CN(C(=O)c2cnn3c(C(F)F)cc(-c4ccccc4)nc23)CC(C)O1` (configuration not stated): the EC50 is > 60 µM (inactive), the EC90 is over 60 µM and the CC50 is over 60 µM.

`C=CCSc1nnc(-c2cccnc2)o1`: the concentration for an effect of 90% (EC90) was over 60 µM and the CC50 was over 60 µM.

Consider `Cc1cc(NC(=O)C2CC(c3ccc(F)cc3)=NO2)n(-c2ccccc2)n1` (configuration not stated), for which the EC50 was > 60 µM (inactive), the EC90 was over 60 µM and the 50% cytotoxic concentration (CC50) was over 60 µM.

Take `O=C(CN1CCN(c2ncccn2)CC1)NCc1ccccc1`: the EC50 was > 60 µM (inactive), the EC90 is over 60 µM and the cytotoxic concentration (CC50) was over 60 µM.

`COc1ccccc1Nc1ncnc2c1cnn2-c1cccc(C)c1`: the EC50 is > 60 µM (inactive), the EC90 is over 60 µM and the CC50 was over 60 µM.

`COc1ccc(-c2nc3nc(C)c(Cc4ccccc4)c(=O)n3[nH]2)cc1`: the EC50 is > 60 µM (inactive), the EC90 was over 60 µM and the CC50 is over 60 µM.

With `CC(C)(C)c1ccc(S(=O)(=O)N2CCCCC2C(=O)NCc2ccccn2)cc1` (configuration not stated), the EC50 is > 60 µM (inactive), the EC90 is over 60 µM and the CC50 was over 60 µM.

Regarding `COc1cccc(Nc2ncnc3c2cnn3-c2cccc(C)c2)c1`, the EC50 was > 60 µM (inactive), the EC90 was over 60 µM and the CC50 was over 60 µM.

In the case of `COc1ccccc1CNC(=O)c1ccc(S(=O)(=O)N2CCCC2)cc1`, the EC50 is > 60 µM (inactive), the EC90 was over 60 µM and the CC50 is over 60 µM.
